Results: patent publication US10174037B2, “Dihydropyrazolopyrimidinone compounds as PDE2 inhibitors” (Merck Sharp & Dohme Corp., priority 2015, dated 2019)
Where two headings read alike, the source gives them in different places.

Legend:
Rhesus PDE2A3 = Rhesus PDE2A3 (Macaca mulatta, UniProt B3VTJ2); test: PDE2 fluorescence polarization (IMAP FP) assay, rhesus PDE2A3; format: biochemical, rhesus macaque
human PDE2A1 = human PDE2A1 (Homo sapiens (Human), UniProt O00408); test: PDE selectivity IMAP FP assay, human PDE2A1; format: biochemical; settings: Human PDE2
Chain of human PDE2A1 (O00408 other isoform, or with tags, fused parts or gaps): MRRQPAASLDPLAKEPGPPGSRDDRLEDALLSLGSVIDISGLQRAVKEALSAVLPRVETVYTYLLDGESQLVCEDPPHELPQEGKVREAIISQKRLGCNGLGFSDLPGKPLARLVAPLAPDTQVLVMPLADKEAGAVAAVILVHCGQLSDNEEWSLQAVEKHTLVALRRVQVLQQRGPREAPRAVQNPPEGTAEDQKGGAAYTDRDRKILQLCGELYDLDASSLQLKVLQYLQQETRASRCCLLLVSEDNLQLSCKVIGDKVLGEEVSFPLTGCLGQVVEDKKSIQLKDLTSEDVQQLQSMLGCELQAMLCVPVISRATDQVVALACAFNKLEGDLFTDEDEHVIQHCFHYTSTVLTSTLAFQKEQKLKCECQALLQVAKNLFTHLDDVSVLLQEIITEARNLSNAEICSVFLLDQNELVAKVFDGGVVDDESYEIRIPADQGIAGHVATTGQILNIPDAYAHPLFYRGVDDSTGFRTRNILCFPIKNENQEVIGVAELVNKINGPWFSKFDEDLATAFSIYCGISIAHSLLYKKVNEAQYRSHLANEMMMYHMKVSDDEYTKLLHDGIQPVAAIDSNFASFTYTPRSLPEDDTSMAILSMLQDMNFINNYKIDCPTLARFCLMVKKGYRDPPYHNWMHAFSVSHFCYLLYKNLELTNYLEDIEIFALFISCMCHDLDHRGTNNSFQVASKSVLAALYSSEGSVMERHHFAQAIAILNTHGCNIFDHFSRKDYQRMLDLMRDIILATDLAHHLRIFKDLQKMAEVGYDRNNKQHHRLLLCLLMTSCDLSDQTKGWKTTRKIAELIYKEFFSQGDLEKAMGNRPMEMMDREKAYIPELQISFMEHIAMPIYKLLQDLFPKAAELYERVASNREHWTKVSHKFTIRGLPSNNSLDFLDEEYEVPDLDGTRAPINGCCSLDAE
Procedure, shortened: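 IMAP fluorescence polarization assay; PDE2 substrate 50 nM FAM-cAMP containing 1000 nM cGMP, enzyme diluted for 20% substrate conversion, in 10 mM Tris HCl pH 7.2, 10 mM MgCl2, 1 mM DTT. Reaction 60 min at room temperature, stopped with IMAP binding solution; polarization read after 1 h. Ki reported.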

[1] = Lab B, read-out: Rhesus PDE2 Ki (nM) Lab B
[2] = Lab B, read-out: Human PDE2 Ki (nM) Lab B
[3] = Lab A, read-out: Rhesus PDE2 Ki (nM) Lab A
[4] = Lab A, read-out: Human PDE2 Ki (nM) Lab A

Chain of Rhesus PDE2A3 (B3VTJ2 1-941): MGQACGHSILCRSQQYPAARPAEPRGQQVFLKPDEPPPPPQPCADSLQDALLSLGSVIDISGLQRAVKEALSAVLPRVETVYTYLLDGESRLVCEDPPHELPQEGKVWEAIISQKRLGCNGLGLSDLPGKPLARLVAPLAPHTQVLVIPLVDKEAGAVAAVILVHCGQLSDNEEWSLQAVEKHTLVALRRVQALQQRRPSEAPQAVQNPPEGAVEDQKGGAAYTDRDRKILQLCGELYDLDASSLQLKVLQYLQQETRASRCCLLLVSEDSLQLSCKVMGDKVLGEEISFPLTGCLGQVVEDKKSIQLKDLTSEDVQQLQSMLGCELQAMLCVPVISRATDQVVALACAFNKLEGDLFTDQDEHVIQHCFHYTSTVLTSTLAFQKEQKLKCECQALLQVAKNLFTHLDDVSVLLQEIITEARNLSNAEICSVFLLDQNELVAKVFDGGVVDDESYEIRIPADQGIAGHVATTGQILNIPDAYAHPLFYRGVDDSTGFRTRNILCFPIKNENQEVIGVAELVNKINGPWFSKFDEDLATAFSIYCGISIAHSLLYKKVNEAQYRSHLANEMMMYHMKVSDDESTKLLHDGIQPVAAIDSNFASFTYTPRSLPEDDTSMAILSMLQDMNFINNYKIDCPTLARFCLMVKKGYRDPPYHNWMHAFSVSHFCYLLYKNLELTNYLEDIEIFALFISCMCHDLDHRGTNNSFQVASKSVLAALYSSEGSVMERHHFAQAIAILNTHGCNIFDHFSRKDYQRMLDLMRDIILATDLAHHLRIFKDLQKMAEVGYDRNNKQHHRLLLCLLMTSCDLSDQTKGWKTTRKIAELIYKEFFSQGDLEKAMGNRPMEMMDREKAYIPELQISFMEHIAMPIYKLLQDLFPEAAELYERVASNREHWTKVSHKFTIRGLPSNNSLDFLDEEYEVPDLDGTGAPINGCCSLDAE

Ki (Rhesus PDE2A3; [1]) [nM] | Ki (human PDE2A1; [2]) [nM] | Ki (Rhesus PDE2A3; [3]) [nM] | Ki (human PDE2A1; [4]) [nM] | SMILES
21 | 21 | – | – | CC1(C(c2ccc(C(F)(F)F)cc2)n2nc(CC(F)(F)F)c3c(=O)[nH]c(O)nc32)CC1 (single isomer, unassigned) [Example 244, (R)- or (S)-6-Hydroxy-1-((1-methylcyclopropyl)(4-(trifluoromethyl)phenyl)methyl)-3-(2,2,2-trifluoroethyl)-1H-pyrazolo[3,4-d]pyrimidin-4(5H)-one]
1.8 | 1.9 | – | – | O=c1[nH]c(O)nc2c1c(C(F)F)nn2C(c1ccc(C(F)(F)F)cc1)C1CC1 (single isomer, unassigned) [Example 279, (R)- or (S)-1-(Cyclopropyl(4-(trifluoromethyl)phenyl)methyl)-3-(difluoromethyl)-6-hydroxy-1H-pyrazolo[3,4-d]pyrimidin-4(5H)-one]
0.91 | 0.61 | – | – | CN(C)c1nc2c(c(CF)nn2C(c2ccc(C(C)(F)F)cc2)C2CC2)c(=O)[nH]1 (single isomer, unassigned) [Example 212, (R)- or (S)-1-(Cyclopropyl(4-(1,1-difluoroethyl)phenyl)methyl)-6-(dimethylamino)-3-(fluoromethyl)-1H-pyrazolo[3,4-d]pyrimidin-4(5H)-one]
27 | 28 | 20 | 13 | CC(c1ccc(S(F)(F)(F)(F)F)cc1)n1nc(CO)c2c(=O)[nH]c(O)nc21 (single isomer, unassigned) [Example 21, (S)- or (R)-6-Hydroxy-3-(hydroxymethyl)-1-{1-[4-(pentafluorosulfanyl)phenyl]ethyl}-1,5-dihydro-4H-pyrazolo[3,4-d]pyrimidin-4-one]
20 | 24 | 14 | 9 | CC(c1ccc(C(F)(F)F)cc1)n1nc(CO)c2c(=O)[nH]c(O)nc21 (single isomer, unassigned) [Example 19, (S)- or (R)-6-Hydroxy-3-(hydroxymethyl)-1-{1-[4-(trifluoromethyl)phenyl]ethyl}-1,5-dihydro-4H-pyrazolo[3,4-d]pyrimidin-4-one]
– | – | 139 | 85 | CNc1nc2c(c(C)nn2C(C)c2ccc(C(F)(F)F)cc2)c(=O)[nH]1 (centres unmarked) [Example 269, 3-Methyl-6-(methylamino)-1-(1-(4-(trifluoromethyl)phenyl)ethyl)-1,5-dihydro-4H-pyrazolo[3,4-d]pyrimidin-4-one]
102 | 121 | – | – | CC(c1ccc(C(F)(F)F)cc1)n1nc(C(F)(F)F)c2c(=O)[nH]c(O)nc21 (single isomer, unassigned) [Example 254, (R)- or (S)-6-Hydroxy-3-(trifluoromethyl)-1-(1-(4-(trifluoromethyl)phenyl)ethyl)-1H-pyrazolo[3,4-d]pyrimidin-4(5H)-one]
0.15 | 0.17 | – | – | CN(C)c1nc2c(c(CO)nn2C(c2ccc(C(F)(F)F)cc2)C2CC2)c(=O)[nH]1 (single isomer, unassigned) [Example 74, (R)- or (S)-1-(Cyclopropyl(4-(trifluoromethyl)phenyl)methyl)-6-(dimethylamino)-3-(hydroxymethyl)-1H-pyrazolo[3,4-d]pyrimidin-4(5H)-one]
5.2 | 7 | – | – | CC(C)C(c1ccc(C(F)(F)F)c(F)c1)n1nc(CO)c2c(=O)[nH]c(O)nc21 (single isomer, unassigned) [Example 27, (R)- or (S)-1-(1-(3-Fluoro-4-(trifluoromethyl)phenyl)-2-methylpropyl)-6-hydroxy-3-(hydroxymethyl)-1H-pyrazolo[3,4-d]pyrimidin-4(5H)-one]
0.068 | 0.048 | – | – | CCC(c1ccc(C(F)(F)F)cc1F)n1nc(CF)c2c(=O)[nH]c(N(C)C)nc21 (single isomer, unassigned) [Example 198, (R)- or (S)-6-(Dimethylamino)-1-(1-(2-fluoro-4-(trifluoromethyl)phenyl)propyl)-3-(fluoromethyl)-1H-pyrazolo[3,4-d]pyrimidin-4(5H)-one]
5 | 3.4 | – | – | CC(c1ccc(C(C)(C)C)cc1)n1nc(CC(F)(F)F)c2c(=O)[nH]c(O)nc21 (single isomer, unassigned) [Example 236, (R)- or (S)-1-(1-(4-tert-Butylphenyl)ethyl)-6-hydroxy-3-(2,2,2-trifluoroethyl)-1H-pyrazolo[3,4-d]pyrimidin-4(5H)-one]
1.2 | 1.6 | – | – | CC(c1ccc(C(F)(F)F)c(F)c1)n1nc(C(F)F)c2c(=O)[nH]c(O)nc21 (single isomer, unassigned) [Example 278, (S)- or (R)-3-(Difluoromethyl)-1-(1-(3-fluoro-4-(trifluoromethyl)phenyl)ethyl)-6-hydroxy-1H-pyrazolo[3,4-d]pyrimidin-4(5H)-one]
0.28 | 0.27 | – | – | CN(C)c1nc2c(c(CO)nn2C(c2ccc(C(F)F)cc2)C2CC2)c(=O)[nH]1 (single isomer, unassigned) [Example 62]
0.41 | 0.35 | – | – | CN(C)c1nc2c(c(CF)nn2C(c2ccc(OC(F)F)c(F)c2)C2CC2)c(=O)[nH]1 (single isomer, unassigned) [Example 188, (R)- or (S)-1-(Cyclopropyl(4-(difluoromethoxy)-3-fluorophenyl)methyl)-6-(dimethylamino)-3-(fluoromethyl)-1H-pyrazolo[3,4-d]pyrimidin-4(5H)-one]
9.8 | 10 | – | – | O=c1[nH]c(O)nc2c1c(CF)nn2C(c1ccc(OC(F)(F)F)c(F)c1)C1CC1 (single isomer, unassigned) [Example 44]
0.41 | 0.39 | – | – | CN(C)c1nc2c(c(CF)nn2C(c2ccc(CC(F)(F)F)cc2)C2CC2)c(=O)[nH]1 (single isomer, unassigned) [Example 193, (S)- or (R)-1-(Cyclopropyl(4-(2,2.2-trifluoroethyl)phenyl)methyl)-6-(dimethylamino)-3-(fluoromethyl)-1H-pyrazolo[3,4-d]pyrimidin-4(5H)-one]
0.46 | 0.51 | – | – | CC(c1ccc(OC(F)(F)F)cc1)n1nc(CO)c2c(=O)[nH]c(N(C)C)nc21 (single isomer, unassigned) [Example 149, (S)- or (R)-6-(Dimethylamino)-3-(hydroxymethyl)-1-(1-(4-(trifluoromethoxy)phenyl)ethyl)-1H-pyrazolo[3,4-d]pyrimidin-4(5H)-one]
0.59 | 0.31 | – | – | CC(c1ccc(C(F)F)c(F)c1)n1nc(CF)c2c(=O)[nH]c(N(C)C)nc21 (single isomer, unassigned) [Example 196, (R)- or (S)-1-(1-(4-(Difluoromethyl)-3-fluorophenyl)ethyl)-6-(dimethylamino)-3-(fluoromethyl)-1H-pyrazolo[3,4-d]pyrimidin-4(5H)-one]
50 | 39 | – | – | O=c1[nH]c(O)nc2c1c(CO)nn2C1(c2ccc(C(F)(F)F)cc2)CCC1 [Example 26, 6-Hydroxy-3-(hydroxymethyl)-1-(1-(4-(trifluoromethyl)phenyl)cyclobutyl)-1H-pyrazolo[3,4-d]pyrimidin-4(5H)-one]
0.28 | 0.23 | – | – | CC(C)c1ccc(C(C(C)C)n2nc(CF)c3c(=O)[nH]c(N(C)C)nc32)cc1 (single isomer, unassigned) [Example 176, (R)- or (S)-6-(Dimethylamino)-3-(fluoromethyl)-1-(1-(4-isopropylphenyl)-2-methylpropyl)-1H-pyrazolo[3,4-d]pyrimidin-4(5H)-one]
0.072 | 0.072 | – | – | CN(C)c1nc2c(c(CF)nn2C(c2ccc(C(F)(F)F)cc2)C2CC2)c(=O)[nH]1 (single isomer, unassigned) [Example 179, (S)- or (R)-1-(Cyclopropyl(4-(trifluoromethyl)phenyl)methyl)-6-(dimethylamino)-3-(fluoromethyl)-1H-pyrazolo[3,4-d]pyrimidin-4(5H)-one]
1.6 | 2.4 | – | – | CC(c1ccc(OC(F)(F)F)c(F)c1)n1nc(C(F)F)c2c(=O)[nH]c(O)nc21 (single isomer, unassigned) [Example 288, (S)- or (R)-3-(Difluoromethyl)-1-(1-(3-fluoro-4-(trifluoromethoxy)phenyl)ethyl)-6-hydroxy-1H-pyrazolo[3,4-d]pyrimidin-4(5H)-one]
0.12 | 0.12 | – | – | CN(C)c1nc2c(c(CO)nn2C(c2ccc(C(F)(F)F)c(F)c2)C2CC2)c(=O)[nH]1 (single isomer, unassigned) [Example 150, (R)- or (S)-1-(Cyclopropyl(3-fluoro-4-(trifluoromelhyl)phenyl)methyl)-6-(dimethylamino)-3-(hydroxymethyl)-1H-pyrazolo[3,4-d]pyrimidin-4(5H)-one]
– | – | 85 | 44 | Cc1ccc(C(C)n2nc(CF)c3c(=O)[nH]c(O)nc32)cc1 (centres unmarked) [Example 37, 3-(Fluoromethyl)-6-hydroxy-1-(1-p-tolylethyl)-1H-pyrazolo[3,4-d]pyrimidin-4(5H)-one]

SMILES | Ki (Rhesus PDE2A3; [1]) [nM] | Ki (human PDE2A1; [2]) [nM] | Ki (Rhesus PDE2A3; [3]) [nM] | Ki (human PDE2A1; [4]) [nM]
CC(c1ccc(C(C)(F)F)cc1)n1nc(CF)c2c(=O)[nH]c(N(C)C)nc21 (single isomer, unassigned) [Example 195, (S)- or (R)-1-(1-(4-(1,1-Difluoroethyl)phenyl)ethyl)-6-(dimethylamino)-3-(fluoromethyl)-1H-pyrazolo[3,4-d]pyrimidin-4(5H)-one] | 0.14 | 0.17 | – | –
CC(c1ccc(C(F)(F)F)cc1)n1nc(CF)c2c(=O)[nH]c(O)nc21 (centres unmarked) [Example 41, 3-(Fluoromethyl)-6-hydroxy-1-{1-[4-(trifluoromethyl)phenyl]ethyl}-1,5-dihydro-4H-pyrazolo[3,4-d]pyrimidin-4-one] | – | – | 3.5 | 2.3
